Test results published in patent US9718823B2, “2, 6-Di-nitrogen-containing substituted purine derivative, and preparation method, pharmaceutical composition and use thereof” (Zhejiang Medicine Co., Ltd. Xinchang Pharmaceutical Factory, priority 2013, dated 2017).
Where a name gives a salt, the structure may show the parent alone. Read-outs that look alike come from different tables or passages of the source.

Legend:
[1] = tested on: PC-3 cell Akt (Ser473) phosphorylation; test: Inhibition of phosphorylation level of PC-3 cell Akt (Ser473), Cisbio HTRF phospho Akt (Ser473) cell-based assay; parameters: species or system human; conditions: hEGF 100 ng/ml stimulation, 1st and 2nd test where printed
Description: The inhibitory activity of the compounds of present invention to the phosphorylation level of PC-3 cell Akt (Ser473) is studied by using Cisbio HTRF phospho Akt (Ser473) cell-based assay test kit.
Cell strain: PC-3 prostate cancer cells line (cell bank of Chinese Academy of Sciences) is cultured by using culture medium (F12K+10% FBS).
hEGF is prepared as stock solution of 100 ug/ml with 10 mM acetic acid, and the stock solution is diluted to 200 ng/ml with serum-free medium, added 50 ul to each well to be stimulated.
b) Preparation of Complete Lysate • 4×Lysis Buffer is diluted 4 times with ddH2O to prepare 1×Lysis Buffer. • 100×Blocking Reagent is diluted 100 times with 1×Lysis Buffer.
c) Preparation of Detection Liquid • 20×Anti-Phospho-Akt is diluted 20 times with Detection Buffer. • 20×Anti-Akt is diluted 20 times with Detection Buffer.
The compounds are diluted with DMSO, and the working concentration of compounds is 100 times of detection concentration.
Cells in logarithmic growth phase are collected, counted, and resuspended with complete culture medium;
The cell concentration is adjusted to appropriate concentration, and cell suspension is inoculated into 96 well plates at 50 μl per well;
Cells are incubated for more than 4 h in the 5% CO2 incubator at temperature of 37° C., relative humidity of 100%;
Cell plate is removed from the incubator. The cell suspension is aspirated gently, and 50 ul serum-free F12K medium is quickly added, then the cell plate is placed into the incubator to culture overnight.
The compounds are diluted in a linear gradient with DMSO.
0.5 ul compounds is added into the test well, mixed on oscillators, and incubated at room temperature for 2 hours.
Proportioned hEGF solution is added to test well at 50 μl per well, and the final concentration is 100 ng/ml. serum-free medium is added into The negative control well at 50 μl per well.
The solution is mixed on oscillator and incubated at room temperature for 2 hours.
The liquid in 96 well plates is aspirated by multichannel pipette or the supernatant is discarded gently. The proportioned complete lysate is added quickly at 50 μl per well.
The solution is mixed on oscillator and lysed at room temperature for 30 min.
16 μl cell lysate is transferred from the 96 well plates to white low volume 384 well plates, and the proportioned two pairs of detection antibody are added. The solution is mixed on oscillator, and incubated at room temperature for 4 hours to detect the readings.

PI3Kδ = biological target: T1, PI3Kδ (Homo sapiens, UniProt O00329); test: Inhibitory activity to PI3K δ, PI 3-Kinase (human) HTRF Assay kit; format: biochemical
T1 construct: purchased Millipore 14-604
T1 sequence (O00329 whole entry): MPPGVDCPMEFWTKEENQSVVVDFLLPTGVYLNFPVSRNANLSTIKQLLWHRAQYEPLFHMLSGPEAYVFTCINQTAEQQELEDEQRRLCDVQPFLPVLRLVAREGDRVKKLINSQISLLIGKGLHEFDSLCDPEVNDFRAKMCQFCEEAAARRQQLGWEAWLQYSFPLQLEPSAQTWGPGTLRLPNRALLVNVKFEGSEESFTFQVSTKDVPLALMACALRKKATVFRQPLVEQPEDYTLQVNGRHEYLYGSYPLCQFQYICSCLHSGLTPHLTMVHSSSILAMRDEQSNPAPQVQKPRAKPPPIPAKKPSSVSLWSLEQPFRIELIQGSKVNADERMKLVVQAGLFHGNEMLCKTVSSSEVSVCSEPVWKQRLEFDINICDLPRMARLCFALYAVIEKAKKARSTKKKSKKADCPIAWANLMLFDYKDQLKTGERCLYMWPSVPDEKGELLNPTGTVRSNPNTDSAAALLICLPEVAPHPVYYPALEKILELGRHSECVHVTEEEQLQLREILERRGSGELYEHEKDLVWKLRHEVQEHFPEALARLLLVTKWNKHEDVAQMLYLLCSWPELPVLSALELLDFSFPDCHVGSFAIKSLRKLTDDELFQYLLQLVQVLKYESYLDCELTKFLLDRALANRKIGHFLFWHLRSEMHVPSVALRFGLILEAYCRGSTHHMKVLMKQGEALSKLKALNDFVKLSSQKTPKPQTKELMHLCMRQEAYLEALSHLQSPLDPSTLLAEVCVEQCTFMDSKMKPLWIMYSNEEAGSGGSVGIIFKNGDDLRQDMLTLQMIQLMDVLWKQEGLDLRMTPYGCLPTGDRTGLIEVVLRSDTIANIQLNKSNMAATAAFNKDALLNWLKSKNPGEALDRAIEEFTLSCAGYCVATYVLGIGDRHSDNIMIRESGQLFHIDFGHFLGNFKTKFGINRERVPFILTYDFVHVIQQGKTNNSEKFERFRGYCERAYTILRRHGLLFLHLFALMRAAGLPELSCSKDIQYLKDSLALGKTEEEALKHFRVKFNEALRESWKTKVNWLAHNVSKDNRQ
T1 sequence (P27986 whole entry partner): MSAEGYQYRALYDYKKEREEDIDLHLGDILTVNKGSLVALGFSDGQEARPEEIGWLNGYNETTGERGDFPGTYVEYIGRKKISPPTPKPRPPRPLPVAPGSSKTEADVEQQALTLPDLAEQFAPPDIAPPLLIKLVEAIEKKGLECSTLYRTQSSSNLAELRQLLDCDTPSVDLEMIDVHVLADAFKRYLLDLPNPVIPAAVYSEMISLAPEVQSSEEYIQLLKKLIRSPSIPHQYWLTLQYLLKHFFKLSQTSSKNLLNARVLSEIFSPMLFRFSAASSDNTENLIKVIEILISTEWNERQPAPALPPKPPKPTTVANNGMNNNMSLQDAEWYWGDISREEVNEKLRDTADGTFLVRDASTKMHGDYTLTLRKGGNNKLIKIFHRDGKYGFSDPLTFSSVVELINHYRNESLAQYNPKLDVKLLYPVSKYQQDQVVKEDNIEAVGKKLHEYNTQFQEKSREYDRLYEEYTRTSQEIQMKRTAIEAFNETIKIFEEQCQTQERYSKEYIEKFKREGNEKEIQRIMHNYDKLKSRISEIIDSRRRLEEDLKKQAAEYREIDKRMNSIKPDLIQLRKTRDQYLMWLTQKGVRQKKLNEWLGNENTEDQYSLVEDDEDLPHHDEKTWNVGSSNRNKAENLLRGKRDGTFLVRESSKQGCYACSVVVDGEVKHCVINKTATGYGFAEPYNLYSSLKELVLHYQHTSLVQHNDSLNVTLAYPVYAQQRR
Method in brief: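 Inhibition of human PI3Kδ was assessed with the Millipore PI 3-Kinase (human) HTRF Assay kit. PI3Kδ was screened at 2 ng/well, diluted in 2×PIP2 operating fluid. Reactions were 20 μL and contained 100 μM ATP. Stop solution was Stop A and Stop B mixed 3:1. Detection solution was DM C, DM A and DM B mixed 18:1:1. Compounds were prepared from DMSO stocks, and percent inhibition was reported.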

PI3 K γ = biological target: T2, PI3 K γ (Homo sapiens, UniProt P48736); test: Inhibitory activity to PI3K γ, PI 3-Kinase (human) HTRF Assay kit; format: biochemical; conditions: for Inhibition rate % to PI3 K γ: dihydrate di-methanesulfonate
T2 construct: purchased Biology, Medicilon
T2 sequence (P48736 whole entry): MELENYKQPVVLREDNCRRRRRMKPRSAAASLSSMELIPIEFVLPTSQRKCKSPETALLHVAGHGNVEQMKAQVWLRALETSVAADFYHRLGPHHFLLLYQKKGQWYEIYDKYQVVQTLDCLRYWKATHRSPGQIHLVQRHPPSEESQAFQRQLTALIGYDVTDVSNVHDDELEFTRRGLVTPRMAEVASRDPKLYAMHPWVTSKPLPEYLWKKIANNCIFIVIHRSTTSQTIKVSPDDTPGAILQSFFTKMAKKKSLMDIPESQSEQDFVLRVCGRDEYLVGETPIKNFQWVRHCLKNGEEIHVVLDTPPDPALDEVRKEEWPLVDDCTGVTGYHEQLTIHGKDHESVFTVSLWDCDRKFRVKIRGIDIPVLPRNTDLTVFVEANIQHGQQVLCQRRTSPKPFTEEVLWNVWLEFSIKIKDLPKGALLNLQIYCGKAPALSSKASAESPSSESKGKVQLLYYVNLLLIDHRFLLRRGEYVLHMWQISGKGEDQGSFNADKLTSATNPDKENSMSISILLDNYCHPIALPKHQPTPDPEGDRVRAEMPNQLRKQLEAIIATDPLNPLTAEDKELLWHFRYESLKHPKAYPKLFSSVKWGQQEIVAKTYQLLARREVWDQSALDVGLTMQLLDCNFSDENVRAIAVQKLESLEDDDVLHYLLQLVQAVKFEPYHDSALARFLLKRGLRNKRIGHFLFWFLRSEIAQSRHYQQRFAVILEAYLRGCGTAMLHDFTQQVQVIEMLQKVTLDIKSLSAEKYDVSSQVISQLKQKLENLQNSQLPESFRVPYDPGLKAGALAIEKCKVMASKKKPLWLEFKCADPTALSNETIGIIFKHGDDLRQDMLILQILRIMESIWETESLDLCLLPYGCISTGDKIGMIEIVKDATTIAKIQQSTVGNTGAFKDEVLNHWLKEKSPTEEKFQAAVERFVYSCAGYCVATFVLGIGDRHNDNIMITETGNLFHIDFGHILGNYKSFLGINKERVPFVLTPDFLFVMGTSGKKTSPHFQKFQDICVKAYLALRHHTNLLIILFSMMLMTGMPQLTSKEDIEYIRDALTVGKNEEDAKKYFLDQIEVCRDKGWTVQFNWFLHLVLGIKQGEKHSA
Method in brief: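 HTRF kinase assay with PI3Kγ at 80 ng/well, 10 μM PIP2 and 100 μM ATP (both final) in DTT-containing reaction buffer, 1% DMSO. Preliminary screen at 10 μM and 1 μM compound, followed by IC50 determination for selected compounds.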

PI3K α = biological target: T3, PI3K α (Homo sapiens, UniProt P42336); test: Inhibitory activity to PI3K α, PI 3-Kinase (human) HTRF Assay kit; format: biochemical; conditions: read-out: % Inhibition Rate to PI3K α
T3 construct: purchased Millipore 14-602
T3 sequence (P42336 whole entry): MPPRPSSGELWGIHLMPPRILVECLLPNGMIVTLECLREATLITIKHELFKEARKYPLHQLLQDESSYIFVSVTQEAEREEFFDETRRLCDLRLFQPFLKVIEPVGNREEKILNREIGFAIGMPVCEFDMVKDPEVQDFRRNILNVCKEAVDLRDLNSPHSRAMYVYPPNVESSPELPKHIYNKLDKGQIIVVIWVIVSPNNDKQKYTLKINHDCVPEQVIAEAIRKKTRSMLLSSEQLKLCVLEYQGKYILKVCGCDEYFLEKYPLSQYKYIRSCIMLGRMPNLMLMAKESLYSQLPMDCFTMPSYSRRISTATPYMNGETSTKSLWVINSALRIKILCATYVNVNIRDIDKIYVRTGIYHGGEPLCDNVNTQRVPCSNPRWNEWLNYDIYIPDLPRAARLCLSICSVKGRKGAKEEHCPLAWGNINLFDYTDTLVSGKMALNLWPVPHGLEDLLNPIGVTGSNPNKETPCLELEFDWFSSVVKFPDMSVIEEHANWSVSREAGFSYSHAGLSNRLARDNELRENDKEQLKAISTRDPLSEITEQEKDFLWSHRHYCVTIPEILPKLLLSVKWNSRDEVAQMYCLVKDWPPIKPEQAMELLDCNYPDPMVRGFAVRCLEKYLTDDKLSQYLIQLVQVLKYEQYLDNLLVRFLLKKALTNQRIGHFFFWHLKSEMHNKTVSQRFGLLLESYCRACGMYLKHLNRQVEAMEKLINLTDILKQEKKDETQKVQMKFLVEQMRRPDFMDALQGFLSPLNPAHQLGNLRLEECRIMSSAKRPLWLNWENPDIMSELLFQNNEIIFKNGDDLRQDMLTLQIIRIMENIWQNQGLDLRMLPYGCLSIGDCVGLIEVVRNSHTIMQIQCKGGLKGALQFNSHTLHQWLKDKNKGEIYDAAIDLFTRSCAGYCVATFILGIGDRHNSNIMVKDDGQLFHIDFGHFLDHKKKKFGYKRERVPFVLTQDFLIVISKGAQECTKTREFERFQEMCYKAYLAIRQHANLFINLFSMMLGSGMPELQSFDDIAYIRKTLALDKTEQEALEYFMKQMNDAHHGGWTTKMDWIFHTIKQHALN
T3 sequence (P27986 whole entry partner): as the sequence (P27986 whole entry partner) above
Method in brief: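 HTRF assay using human PI3Kα at 8 ng/well, 100 μM ATP and PIP2 (2× working stock 20 μM) in 20 μL reaction containing 1% DMSO. Screened at 10 μM and 1 μM for percent inhibition, with selected compounds then taken to IC50 determination.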

[2] = 10 μM (Table 7), read-out: Inhibition rate % to PI3Kδ

## c1ccc(-c2ccnc3ccc(Nc4nc(NC5CC5)c5nc[nH]c5n4)cc23)cc1 [MED1007-91, N6-cyclopropyl-N2-(4-phenylquinoline-6-yl)-9H-purine-2,6-diammonium salt dihydrate di-methanesulfonate]
[1]; PC-3 cells, dihydrate di-methanesulfonate
  IC50: 74 nM
PI3Kδ; 1 μM (Table 7), dihydrate di-methanesulfonate, 1 µM
  Inhibition rate % to PI3Kδ: 96.32%
PI3Kδ; [2]
  inhibition at 10 µM: 115%
PI3 K γ; 1 μM
  Inhibition rate % to PI3 K γ: 29.82%
PI3 K γ; 10 μM
  Inhibition rate % to PI3 K γ: 81.29%
PI3K α
  inhibition at 1 µM: 97%
  inhibition at 10 µM: 124%

## COC[C@H]1OC(=O)c2coc3c2[C@@]1(C)C1=C(C3=O)[C@@H]2CCC(=O)[C@@]2(C)C[C@H]1OC(C)=O [Wortmannin, reference compound]
[1]; Homo sapiens, PC-3, PC-3 cells
  IC50: 7.41 nM
PI3Kδ; 0.4 μM (Table 8), read-out: Inhibition rate % to PI3K delta
  inhibition at 0.4 µM: 93.4%
PI3Kδ; 1 μM (Table 7), read-out: Inhibition rate % to PI3Kδ
  inhibition at 1 µM: 95.4%
PI3Kδ; [2]
  inhibition at 10 µM: 108%
PI3Kδ; 10 μM (Table 8), read-out: Inhibition rate % to PI3K delta
  inhibition at 10 µM: 105%
PI3Kδ; read-out: Inhibition rate % to PI3K delta
  inhibition at 2 µM: 109%
PI3 K γ; 1 μM, read-out: Inhibition rate % to PI3 K γ
  inhibition at 1 µM: 105%
PI3 K γ; 10 μM, read-out: Inhibition rate % to PI3 K γ
  inhibition at 10 µM: 101%
PI3K α
  inhibition at 1 µM: 109%
  inhibition at 10 µM: 105%
